Numbering of substitutions follows the chain as printed.
What was measured:
[1] = molecular target: T1, AtPPO1 S305L G404A Y426V T431R L479N (SEQ ID NO.127) (Arabidopsis thaliana, UniProt P55826, G404A/L479N/S305L/T431R/Y426V); assay: fluorescent Protoporphyrinogen Oxidase assay, crude extract; format: biochemical; settings: read-out: percentage inhibition
T1 construct: made in house; host or cells: E. coli BL21 (DE3) hemG, crude extract
T1 sequence (P55826 35-537 S305L/G404A/Y426V/T431R/L479N): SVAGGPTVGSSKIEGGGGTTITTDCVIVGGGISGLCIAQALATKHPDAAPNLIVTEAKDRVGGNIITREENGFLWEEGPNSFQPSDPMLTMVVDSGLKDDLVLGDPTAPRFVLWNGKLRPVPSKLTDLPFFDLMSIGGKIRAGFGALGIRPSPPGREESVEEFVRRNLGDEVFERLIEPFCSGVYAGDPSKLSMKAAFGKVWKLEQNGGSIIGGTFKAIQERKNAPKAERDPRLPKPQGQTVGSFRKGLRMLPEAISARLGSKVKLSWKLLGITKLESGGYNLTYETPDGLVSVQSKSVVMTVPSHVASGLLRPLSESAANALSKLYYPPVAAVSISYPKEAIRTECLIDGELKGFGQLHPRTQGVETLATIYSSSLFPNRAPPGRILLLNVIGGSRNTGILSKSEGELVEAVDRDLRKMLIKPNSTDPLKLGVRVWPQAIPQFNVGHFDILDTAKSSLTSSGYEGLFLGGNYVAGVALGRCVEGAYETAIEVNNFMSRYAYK

[2] = molecular target: T2, AtPPO1 Y361D V365L (SEQ ID NO.135) (Arabidopsis thaliana, UniProt P55826, V365L/Y361D); assay: as above; format: biochemical; settings: for improvement over SEQ ID NO:124: AtPPO1 Y361D V365L (SEQ ID NO:135) vs SEQ ID NO:124; for inhibition at 0.1 ppm / inhibition at 1 ppm / inhibition at 10 ppm / inhibition at 100 ppm: read-out: percentage inhibition
T2 construct: made in house; host or cells: E. coli BL21 (DE3) hemG, crude extract
T2 sequence (P55826 35-537 Y361D/V365L): T1 sequence (P55826 35-537 S305L/G404A/Y426V/T431R/L479N) with L271S, Y327D, V331L, A370G, V392Y, R397T, N445L

SMILES | inhibition at 0.1 ppm [1] | inhibition at 1 ppm [1] | inhibition at 10 ppm [1] | inhibition at 100 ppm [1] | improvement over SEQ ID NO:124 [2] | inhibition at 0.1 ppm [2] | inhibition at 1 ppm [2] | inhibition at 10 ppm [2] | inhibition at 100 ppm [2]
CC(C)N(C)S(=O)(=O)NC(=O)c1cc(-n2c(=O)cc(C(F)(F)F)n(C)c2=O)c(F)cc1Cl [Herbicide E, saflufenacil] | 11% | 48% | 75% | 92% | improvement over SEQ ID NO:124 was seen | 0% | 31% | 83% | 100%
C#CCN1C(=O)C(F)(F)Oc2cc(F)c(-n3c(=O)n(C)c(=S)n(C)c3=O)cc21 [Herbicide B, trifludimoxazin] | 91% | 100% | 100% | 100% | improvement over SEQ ID NO:124 was seen | 82% | 100% | 100% | 100%
CCOC(=O)COc1ncccc1Oc1cc(-n2c(=O)cc(C(F)(F)F)n(C)c2=O)c(F)cc1Cl [Herbicide A, epyrifenacil] | 9% | 45% | 69% | 88% | – | 56% | 89% | 99% | 96%
CCOC(=O)C1(C)CC(c2cc(-n3c(=O)cc(C(F)(F)F)n(C)c3=O)c(F)cc2Cl)=NO1 (centres unmarked) [Herbicide C, 3-(2-chloro-4-fluoro-5-(3-methyl-2,6-dioxo-4-trifluoromethyl-3,6-dihydropyrimidin-1(2H)-yl)phenyl)-5-methyl-4,5-dihydroisoxazole-5-carboxylic acid ethyl ester] | 47% | 57% | 83% | 96% | improvement over SEQ ID NO:124 was seen | 30% | 84% | 94% | 100%
CCOC(=O)[C@]1(C)CC(c2cc(-n3c(=O)n(C)c(=S)n(C)c3=O)c(F)cc2Cl)=NO1 [Herbicide D, ethyl (5S)-3-[2-chloro-5-(3,5-dimethyl-2,6-dioxo-4-thioxo-1,3,5-triazinan-1-yl)-4-fluoro-phenyl]-5-methyl-4H-isoxazole-5-carboxylate] | 13% | 40% | 75% | 92% | improvement over SEQ ID NO:124 was seen | 2% | 63% | 93% | 100%
